The source made the active and inactive calls. The rule behind the calls is not given here.
Assays:
[1] = system: MDA-MB-231; test: Antiproliferative activity against human MDA-MB-231 cells after 72 hrs by MTT assay; settings: MDA-MB-231, 72 h
[2] = system: MDA-MB-231; test: Antimigratory activity in human MDA-MB-231 cells after 24 hrs by wound healing assay; settings: MDA-MB-231, 24 h
[3] = system: MCF7; test: cells; settings: Homo sapiens, MCF7, 72 h
[4] = Cytotoxicity against human MCF10A cells at => IC50 of wound healing assay after 24 hrs by MTT assay; settings: mcf-10a
[5] = Cytotoxicity against human MCF10A cells at => IC50 of antiproliferative assay after 24 hrs by MTT assay; settings: mcf-10a
[6] = target: Protein-tyrosine kinase 6 (Homo sapiens) (UniProt Q13882); test: Inhibition of PTK6 phosphorylation in human MDA-MB-231 cells at 20 uM after 72 hrs by Western blot analysis; assay type: cell-based
Protein-tyrosine kinase 6 (Homo sapiens), sequence (Q13882 whole entry, looked up): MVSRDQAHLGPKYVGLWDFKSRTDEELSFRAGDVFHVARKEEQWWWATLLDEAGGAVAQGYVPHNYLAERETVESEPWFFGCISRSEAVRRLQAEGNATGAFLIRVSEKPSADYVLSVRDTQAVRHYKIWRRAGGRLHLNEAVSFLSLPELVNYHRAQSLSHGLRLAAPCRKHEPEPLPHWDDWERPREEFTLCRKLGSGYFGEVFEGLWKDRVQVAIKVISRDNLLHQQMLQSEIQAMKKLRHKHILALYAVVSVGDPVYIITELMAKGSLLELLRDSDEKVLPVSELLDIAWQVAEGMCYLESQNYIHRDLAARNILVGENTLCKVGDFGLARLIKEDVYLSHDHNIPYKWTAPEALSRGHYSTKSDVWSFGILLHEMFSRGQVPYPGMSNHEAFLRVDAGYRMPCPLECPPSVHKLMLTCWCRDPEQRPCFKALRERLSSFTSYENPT

| SMILES | IC50 [1] | IC50 [2] | IC50 ([2]; read-out: pIC50 (converted)) | IC50 [3] | inhibition [6] | Activity [4] | Activity [5] |
| --- | --- | --- | --- | --- | --- | --- | --- |
| CC1=CC[C@H]2[C@H](CC[C@]2(C)O)C(C)(C)[C@@H]1CC[C@H]1[C@]2(C)CC[C@H](OC(=O)c3ccccc3[N+](=O)[O-])C(C)(C)O[C@H]2CC[C@@]1(C)O | 38.7 µM | 18.6 µM | 18.6 µM | 5.2 µM |  | Non-toxic | Non-toxic |
| CC1=CC[C@H]2[C@H](CC[C@]2(C)O)C(C)(C)[C@@H]1CC[C@H]1[C@]2(C)CC[C@H](OC(=O)c3ccc(C(F)(F)F)cc3F)C(C)(C)O[C@H]2CC[C@@]1(C)O | 36.3 µM | 26.4 µM | 26.4 µM | > 50 µM |  | Non-toxic | Non-toxic |
| CC1=CC[C@H]2[C@H](CC[C@]2(C)O)C(C)(C)[C@@H]1CC[C@H]1[C@]2(C)CC[C@H](OC(=O)c3cccc(C(F)(F)F)c3)C(C)(C)O[C@H]2CC[C@@]1(C)O | 36.3 µM | 6.1 µM | 6.1 µM | 37.9 µM |  | Non-toxic | Non-toxic |
| CC1=CC[C@H]2[C@H](CC[C@]2(C)O)C(C)(C)[C@@H]1CC[C@H]1[C@]2(C)CC[C@H](OC(=O)c3cccc([N+](=O)[O-])c3)C(C)(C)O[C@H]2CC[C@@]1(C)O | 34.7 µM | 5.9 µM | 5.9 µM | 36 µM |  | Non-toxic | Non-toxic |
| CC1=CC[C@H]2[C@H](CC[C@]2(C)O)C(C)(C)[C@@H]1CC[C@H]1[C@]2(C)CC[C@H](OC(=O)c3ccccc3C(F)(F)F)C(C)(C)O[C@H]2CC[C@@]1(C)O | 31.5 µM | 34.5 µM | 34.5 µM | 19.2 µM |  | Non-toxic | Non-toxic |
| COc1ccc(C(=O)O[C@H]2CC[C@]3(C)[C@H](CC[C@@](C)(O)[C@H]3CC[C@@H]3C(C)=CC[C@H]4[C@H](CC[C@]4(C)O)C3(C)C)OC2(C)C)cc1 | 30.6 µM | 17.9 µM | 17.9 µM | 41.7 µM |  | Non-toxic | Non-toxic |
| CC1=C(CC[C@H]2[C@]3(C)CC[C@H](O)C(C)(C)O[C@H]3CC[C@@]2(C)O)[C@@H]2[C@H](CC1=O)[C@@](C)(O)CCC2(C)C | > 50 µM | > 50 µM | 84.9 µM | > 50 µM |  |  |  |
| CC1(C)O[C@H]2CC[C@@](C)(O)[C@@H](CC[C@@H]3C(C=O)=CC[C@H]4[C@H](CC[C@]4(C)O)C3(C)C)[C@]2(C)CC[C@@H]1O | > 50 µM | > 50 µM | 51.2 µM | > 50 µM |  |  |  |
| CC1=CC[C@H]2[C@@H]1CC=C(C)[C@@H](CC[C@H]1[C@]3(C)CC[C@H](O)C(C)(C)O[C@H]3CC[C@@]1(C)O)C2(C)C | > 50 µM | 35.3 µM | 35.3 µM | > 50 µM |  |  |  |
| CC(=O)O[C@H]1CC[C@]2(C)[C@H](CC[C@@](C)(O)[C@H]2CC[C@@H]2C(C)=CC[C@@H]3C(C)=CC[C@@H]3C2(C)C)OC1(C)C | 39.2 µM | 16 µM | 16 µM | 43.5 µM |  |  |  |
| C[C@H]1C(=O)C[C@H]2[C@H](CC[C@]2(C)O)C(C)(C)[C@@H]1CC[C@H]1[C@]2(C)CC[C@H](O)C(C)(C)O[C@H]2CC[C@@]1(C)O | > 50 µM | 47.5 µM | 47.5 µM | > 50 µM |  |  |  |
| CC1(C)O[C@H]2CC[C@@](C)(O)[C@@H](CC[C@@H]3C(CO)=CC[C@H]4[C@H](CC[C@]4(C)O)C3(C)C)[C@]2(C)CCC1=O | > 50 µM | > 50 µM | 77.8 µM | > 50 µM |  |  |  |

Stronger by IC50 [1], values ahead:

| IC50 [1] | IC50 [2] | IC50 ([2]; read-out: pIC50 (converted)) | IC50 [3] | inhibition [6] | SMILES | Activity [4] | Activity [5] |
| --- | --- | --- | --- | --- | --- | --- | --- |
| 28.7 µM | 22.7 µM | 22.7 µM | 11.3 µM |  | CC1=CC[C@H]2[C@H](CC[C@]2(C)O)C(C)(C)[C@@H]1CC[C@H]1[C@]2(C)CC[C@H](OC(=O)c3ccccc3F)C(C)(C)O[C@H]2CC[C@@]1(C)O | Non-toxic | Non-toxic |
| 24.3 µM | 6.1 µM |  | 12.1 µM |  | CC1=CC[C@H]2[C@H](CC[C@]2(C)O)C(C)(C)[C@@H]1CC[C@H]1[C@]2(C)CC[C@H](OC(=O)c3ccccc3Cl)C(C)(C)O[C@H]2CC[C@@]1(C)O | Non-toxic | Non-toxic |
| 22.2 µM | 11.9 µM | 11.9 µM | > 50 µM |  | CC1=CC[C@H]2[C@H](CC[C@]2(C)O)C(C)(C)[C@@H]1CC[C@H]1[C@]2(C)CC[C@H](OC(=O)c3ccc(C(F)(F)F)c(F)c3)C(C)(C)O[C@H]2CC[C@@]1(C)O | Non-toxic | Non-toxic |
| 19.5 µM | 7.8 µM | 7.8 µM | 23.4 µM |  | CC1=CC[C@H]2[C@H](CC[C@]2(C)O)C(C)(C)[C@@H]1CC[C@H]1[C@]2(C)CC[C@H](OC(=O)c3ccc(C(F)(F)F)cc3)C(C)(C)O[C@H]2CC[C@@]1(C)O | Non-toxic | Non-toxic |
| 16.1 µM | 7.9 µM | 7.91 µM | 21 µM | Active | CC1=CC[C@H]2[C@H](CC[C@]2(C)O)C(C)(C)[C@@H]1CC[C@H]1[C@]2(C)CC[C@H](OC(=O)c3ccccc3)C(C)(C)O[C@H]2CC[C@@]1(C)O |  |  |
| 14 µM | 9.3 µM | 9.29 µM | 25.7 µM |  | CC1=CC[C@H]2[C@H](CC[C@]2(C)O)C(C)(C)[C@@H]1CC[C@H]1[C@]2(C)CC[C@H](OC(=O)c3ccco3)C(C)(C)O[C@H]2CC[C@@]1(C)O | Non-toxic | Non-toxic |
| 11.3 µM | 2.4 µM | 2.4 µM | 33.5 µM |  | CC1=CC[C@H]2[C@H](CC[C@]2(C)O)C(C)(C)[C@@H]1CC[C@H]1[C@]2(C)CC[C@H](OC(=O)c3ccc(F)cc3)C(C)(C)O[C@H]2CC[C@@]1(C)O | Non-toxic | Non-toxic |
| 11.1 µM | 3.5 µM | 3.48 µM | 21.3 µM |  | CC1=CC[C@H]2[C@H](CC[C@]2(C)O)C(C)(C)[C@@H]1CC[C@H]1[C@]2(C)CC[C@H](OC(=O)c3ccc([N+](=O)[O-])o3)C(C)(C)O[C@H]2CC[C@@]1(C)O | Non-toxic | Non-toxic |
| 8.9 µM | 3.4 µM | 3.35 µM | 21.6 µM |  | CC1=CC[C@H]2[C@H](CC[C@]2(C)O)C(C)(C)[C@@H]1CC[C@H]1[C@]2(C)CC[C@H](OC(=O)c3ccc([N+](=O)[O-])cc3)C(C)(C)O[C@H]2CC[C@@]1(C)O | Non-toxic | Non-toxic |
| 8.1 µM | 1.3 µM | 1.3 µM | 11.9 µM |  | CC1=CC[C@H]2[C@H](CC[C@]2(C)O)C(C)(C)[C@@H]1CC[C@H]1[C@]2(C)CC[C@H](OC(=O)c3ccc(Cl)c(Cl)c3)C(C)(C)O[C@H]2CC[C@@]1(C)O | Non-toxic | Non-toxic |
